# Earlier results as cited in patent publication US20080275036A1, “Prevention and treatment of cardiac conditions” (APT Pharmaceuticals, Inc., priority 2007, published 2008).
# Settings: cited from earlier work
smiles,measurement,setting,value
CC(CN1CC(=O)NC(=O)C1)N1CC(=O)NC(=O)C1 (racemic) [razoxane],solubility in 0.1 N HCl,0.1 N HCl,sparingly soluble
same,"solubility in non-polar, organic solvents",,practically insoluble
same,solubility in polar solvents,ethanol and methanol,slightly soluble
